Data published in patent US12440542B1, “Kits for preparing and delivering purified corticotropin” (ANI Pharmaceuticals, Inc., priority 2022, dated 2025).

System: THP-1 Blue, Raw Blue, HEK-blue hTLR3, HEK-Blue hTLR4, HEK-Blue hNOD2
Test: Activation of innate immune response in reporter cell lines covering TLR and NOD2 expression
Format: cell-based
Conditions: 5 cell lines; 3 PPQ lots; highest drug substance concentration tested 10 μg/mL
Experimental: Method development, qualification, and testing for activation of innate immune response was performed. The innate immune assays performed compared 3 PPQ lots. The work was conducted using 5 cell lines to cover TLR and NOD2 expression (THP-1 Blue, Raw Blue, HEK-blue hTLR3, HEK-Blue hTLR4, HEK-Blue hNOD2). […] The highest drug substance concentration tested was 10 μg/mL. A dose of the sterile preparation of purified corticotropin at 80 U is, equivalent to approximately 1 mg of drug substance per total body weight of subject.

## CCCc1nc2c(N)nc3ccccc3c2s1 [CL075]
  dose response in innate immune assays: robust dose responses

## CC(=O)N[C@@H]1[C@@H](O[C@H](C)C(=O)N[C@@H](C)C(=O)N[C@H](CCC(=O)O)C(N)=O)[C@H](O)[C@@H](CO)O[C@H]1O [MDP]
  dose response in innate immune assays: robust dose responses

## FSL-1
  dose response in innate immune assays: robust dose responses
